Laboratory results as given in patent US10668067B2, “Pyridine sulfonamides” (AMGEN INC., priority 2016, dated 2020).

Each compound was assayed against human Nav1.7 (Homo sapiens (Human), UniProt Q15858) (assay: Nav 1.7 In Vitro PX Assay (PatchXpress whole cell voltage clamp)). Settings: in-vitro Nav 1.7 PX data.
Type: cell-based
Summary of the method: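 Partially inactivated channels (20–50% inactivation at holding potential) probed by 20 ms pulses to −10 mV repeated at 0.1 Hz, in stable human Nav1.7 HEK293 cells.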

human Nav1.7, sequence (Q15858 whole entry): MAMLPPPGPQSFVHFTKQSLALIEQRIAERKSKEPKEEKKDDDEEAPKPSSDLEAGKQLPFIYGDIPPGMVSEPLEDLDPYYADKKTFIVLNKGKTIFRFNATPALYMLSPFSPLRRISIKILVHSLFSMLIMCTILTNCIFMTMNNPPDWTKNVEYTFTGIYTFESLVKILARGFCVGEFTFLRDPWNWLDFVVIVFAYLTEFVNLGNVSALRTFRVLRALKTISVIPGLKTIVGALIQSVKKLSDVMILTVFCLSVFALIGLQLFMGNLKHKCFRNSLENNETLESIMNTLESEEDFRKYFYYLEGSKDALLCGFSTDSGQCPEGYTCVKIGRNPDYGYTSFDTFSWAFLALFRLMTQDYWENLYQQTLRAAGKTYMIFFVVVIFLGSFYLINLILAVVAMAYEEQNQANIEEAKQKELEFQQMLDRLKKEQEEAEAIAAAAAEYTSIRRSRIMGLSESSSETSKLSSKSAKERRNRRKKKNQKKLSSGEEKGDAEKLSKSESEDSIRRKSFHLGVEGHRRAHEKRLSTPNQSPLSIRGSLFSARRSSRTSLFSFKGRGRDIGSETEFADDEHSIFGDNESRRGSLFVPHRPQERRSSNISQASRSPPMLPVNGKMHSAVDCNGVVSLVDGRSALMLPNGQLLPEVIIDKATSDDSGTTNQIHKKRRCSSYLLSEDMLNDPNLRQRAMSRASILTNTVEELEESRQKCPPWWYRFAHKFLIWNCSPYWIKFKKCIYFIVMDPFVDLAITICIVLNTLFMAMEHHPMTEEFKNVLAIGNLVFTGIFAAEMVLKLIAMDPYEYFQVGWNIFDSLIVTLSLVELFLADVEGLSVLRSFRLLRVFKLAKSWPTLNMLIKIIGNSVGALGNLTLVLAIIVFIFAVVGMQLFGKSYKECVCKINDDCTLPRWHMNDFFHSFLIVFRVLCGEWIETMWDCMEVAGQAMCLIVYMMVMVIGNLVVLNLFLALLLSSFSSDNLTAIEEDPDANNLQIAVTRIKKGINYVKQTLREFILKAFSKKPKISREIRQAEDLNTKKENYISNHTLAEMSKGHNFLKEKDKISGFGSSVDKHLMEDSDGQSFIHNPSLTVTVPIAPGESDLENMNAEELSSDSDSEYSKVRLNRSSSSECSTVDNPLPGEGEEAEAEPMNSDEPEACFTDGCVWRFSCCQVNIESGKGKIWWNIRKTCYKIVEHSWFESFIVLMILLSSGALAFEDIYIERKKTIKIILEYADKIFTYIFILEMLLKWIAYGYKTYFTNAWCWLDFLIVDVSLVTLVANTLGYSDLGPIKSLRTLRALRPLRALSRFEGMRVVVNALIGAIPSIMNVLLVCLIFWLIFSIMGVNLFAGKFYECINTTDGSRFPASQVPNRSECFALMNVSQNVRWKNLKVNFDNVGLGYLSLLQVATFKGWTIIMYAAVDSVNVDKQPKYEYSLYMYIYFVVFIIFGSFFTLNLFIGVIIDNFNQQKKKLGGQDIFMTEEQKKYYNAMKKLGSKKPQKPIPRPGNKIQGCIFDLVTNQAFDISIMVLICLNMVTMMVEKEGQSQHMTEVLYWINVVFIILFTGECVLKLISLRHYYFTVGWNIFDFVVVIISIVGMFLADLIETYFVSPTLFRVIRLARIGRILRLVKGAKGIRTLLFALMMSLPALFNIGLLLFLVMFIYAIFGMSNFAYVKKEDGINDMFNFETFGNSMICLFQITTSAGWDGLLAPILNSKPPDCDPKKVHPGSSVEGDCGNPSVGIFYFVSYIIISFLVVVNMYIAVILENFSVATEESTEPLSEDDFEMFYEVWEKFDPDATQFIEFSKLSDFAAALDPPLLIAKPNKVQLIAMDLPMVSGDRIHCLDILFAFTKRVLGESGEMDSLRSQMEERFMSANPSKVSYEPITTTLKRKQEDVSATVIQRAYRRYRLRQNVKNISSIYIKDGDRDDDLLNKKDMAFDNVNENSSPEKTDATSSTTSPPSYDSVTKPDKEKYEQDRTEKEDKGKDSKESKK

Compound | IC50
CNC(=O)N(c1ccc(S(=O)(=O)Nc2ccnc(C)n2)cn1)c1cc(Cl)c(-c2ccc(F)c(OCC(F)(F)F)c2)cc1OC [Example 3-5, 6-((2-chloro-4′-fluoro-5-methoxy-3′-(2,2,2-trifluoroethoxy)-4-biphenylyl)(methylcarbamoyl)amino)-N-(2-methyl-4-pyrimidinyl)-3-pyridinesulfonamide] | 0.076 µM
CNC(=O)N(c1ccc(S(=O)(=O)Nc2ccncn2)cn1)c1cc(Cl)c(-c2ccc(F)c(OCC(F)(F)F)c2)cc1OC [Example 3-6, 6-((2-chloro-4′-fluoro-5-methoxy-3′-(2,2,2-trifluoroethoxy)-4-biphenylyl)(methylcarbamoyl)amino)-N-4-pyrimidinyl-3-pyridinesulfonamide] | 0.051 µM
CNC(=O)N(c1ccc(S(=O)(=O)Nc2ncccn2)cn1)c1cc(Cl)c(-c2ccc(F)c(C(F)(F)F)c2)cc1OC [Example 3-7, 6-((2-chloro-4′-fluoro-5-methoxy-3′-(trifluoromethyl)-4-biphenylyl)(methylcarbamoyl)amino)-N-2-pyrimidinyl-3-pyridinesulfonamide] | 0.028 µM
CNC(=O)N(c1ccc(S(=O)(=O)Nc2cnsn2)cn1)c1cc(Cl)c(-c2ccc(F)c(C(F)(F)F)c2)cc1OC [Example 3-8, 6-((2-chloro-4′-fluoro-5-methoxy-3′-(trifluoromethyl)-4-biphenylyl)(methylcarbamoyl)amino)-N-1,2,5-thiadiazol-3-yl-3-pyridinesulfonamide] | 0.014 µM
CNC(=O)N(c1ccc(S(=O)(=O)Nc2cccc(F)n2)cn1)c1cc(Cl)c(-c2ccc(F)c(C(F)(F)F)c2)cc1OC [Example 3-9, 6-((2-chloro-4′-fluoro-5-methoxy-3′-(trifluoromethyl)-4-biphenylyl)(methylcarbamoyl)amino)-N-(6-fluoro-2-pyridinyl)-3-pyridinesulfonamide] | 0.053 µM
CNC(=O)N(c1ccc(S(=O)(=O)Nc2ncco2)cn1)c1cc(Cl)c(-c2ccc(F)c(C(F)(F)F)c2)cc1OC [Example 3-10, 6-((2-chloro-4′-fluoro-5-methoxy-3′-(trifluoromethyl)-4-biphenylyl)(methylcarbamoyl)amino)-N-1,3-oxazol-2-yl-3-pyridinesulfonamide] | 0.02 µM
CNC(=O)N(c1ccc(S(=O)(=O)Nc2ccnc(C)n2)cn1)c1cc(Cl)c(-c2ccc(F)c(C(F)(F)F)c2)cc1OC [Example 3-11, 6-((2-chloro-4′-fluoro-5-methoxy-3′-(trifluoromethyl)-4-biphenylyl)(methylcarbamoyl)amino)-N-(2-methyl-4-pyrimidinyl)-3-pyridinesulfonamide] | 0.026 µM
CNC(=O)N(c1ccc(S(=O)(=O)Nc2ccncn2)cn1)c1cc(Cl)c(-c2ccc(F)c(C(F)(F)F)c2)cc1OC [Example 3-12, 6-((2-chloro-4′-fluoro-5-methoxy-3′-(trifluoromethyl)-4-biphenylyl)(methylcarbamoyl)amino)-N-4-pyrimidinyl-3-pyridinesulfonamide] | 0.024 µM
CNC(=O)N(c1ccc(S(=O)(=O)Nc2cccnn2)cn1)c1cc(F)c(-c2ccc(F)c(OC(F)(F)F)c2)cc1OC [Example 3-13, 6-((2,4′-difluoro-5-methoxy-3′-(trifluoromethoxy)-4-biphenylyl)(methylcarbamoyl)amino)-N-3-pyridazinyl-3-pyridinesulfonamide] | 0.007 µM
CNC(=O)N(c1ccc(S(=O)(=O)Nc2ncco2)cn1)c1cc(F)c(-c2ccc(F)c(OC(F)(F)F)c2)cc1OC [Example 3-14, 6-((2,4′-difluoro-5-methoxy-3′-(trifluoromethoxy)-4-biphenylyl)(methylcarbamoyl)amino)-N-1,3-oxazol-2-yl-3-pyridinesulfonamide] | 0.017 µM
CNC(=O)N(c1ccc(S(=O)(=O)Nc2ccon2)cn1)c1cc(-c2cc(Cl)cc(OC)c2)ccc1OC [Example 4-1, 6-((3′-chloro-4,5′-dimethoxy-3-biphenylyl)(methylcarbamoyl)amino)-N-3-isoxazolyl-3-pyridinesulfonamide] | 0.461 µM
CNC(=O)N(c1ccc(S(=O)(=O)Nc2ccon2)cn1)c1cc(-c2cccc(C(F)(F)F)c2)ccc1OC [Example 4-2, N-3-isoxazolyl-6-((4-methoxy-3′-(trifluoromethyl)-3-biphenylyl)(methylcarbamoyl)amino)-3-pyridinesulfonamide] | 0.187 µM
CNC(=O)N(c1ccc(S(=O)(=O)Nc2ccon2)cn1)c1cc(-c2cccc(F)c2)ccc1OC [Example 4-3, 6-((3′-fluoro-4-methoxy-3-biphenylyl)(methylcarbamoyl)amino)-N-3-isoxazolyl-3-pyridinesulfonamide] | 2.37 µM
CNC(=O)N(c1ccc(S(=O)(=O)Nc2ccon2)cn1)c1cc(-c2cc(F)cc(Cl)c2)ccc1OC [Example 4-4, 6-((3′-chloro-5′-fluoro-4-methoxy-3-biphenylyl)(methylcarbamoyl)amino)-N-3-isoxazolyl-3-pyridinesulfonamide] | 0.173 µM
CNC(=O)N(c1ccc(S(=O)(=O)Nc2ccon2)cn1)c1cc(-c2ccc(C)c(Cl)c2)ccc1OC [Example 4-5, 6-((3′-chloro-4-methoxy-4′-methyl-3-biphenylyl)(methylcarbamoyl)amino)-N-3-isoxazolyl-3-pyridinesulfonamide] | 0.442 µM
CNC(=O)N(c1ccc(S(=O)(=O)Nc2ccon2)cn1)c1cc(-c2cccc(C(F)(F)F)c2)c(Cl)cc1OC [Example 4-6, 6-((6-chloro-4-methoxy-3′-(trifluoromethyl)-3-biphenylyl)(methylcarbamoyl)amino)-N-3-isoxazolyl-3-pyridinesulfonamide] | 0.09 µM
CNC(=O)N(c1ccc(S(=O)(=O)Nc2ccon2)cn1)c1cc(-c2cccc(F)c2)c(Cl)cc1OC [Example 4-7, 6-((6-chloro-3′-fluoro-4-methoxy-3-biphenylyl)(methylcarbamoyl)amino)-N-3-isoxazolyl-3-pyridinesulfonamide] | 0.891 µM
CNC(=O)N(c1ccc(S(=O)(=O)Nc2ccon2)cn1)c1cc(-c2cc(Cl)cc(OC)c2)c(Cl)cc1OC [Example 4-8, 6-((3′,6-dichloro-4,5′-dimethoxy-3-biphenylyl)(methylcarbamoyl)amino)-N-3-isoxazolyl-3-pyridinesulfonamide] | 0.081 µM
CNC(=O)N(c1ccc(S(=O)(=O)Nc2ccon2)cn1)c1cc(-c2ccc(C)c(Cl)c2)c(Cl)cc1OC [Example 4-9, 6-((3′,6-dichloro-4-methoxy-4′-methyl-3-biphenylyl)(methylcarbamoyl)amino)-N-3-isoxazolyl-3-pyridinesulfonamide] | 0.076 µM
COc1cc(-c2cccc(C(F)(F)F)c2)c(Cl)cc1N(C(N)=O)c1ccc(S(=O)(=O)Nc2ccon2)cn1 [Example 5-1, 6-(1-(2-chloro-5-methoxy-3′-(trifluoromethyl)-[1,1′-biphenyl]-4-yl)ureido)-N-(isoxazol-3-yl)pyridine-3-sulfonamide] | 0.007 µM
COc1cc(-c2ccc(Cl)c(F)c2)c(Cl)cc1N(C(N)=O)c1ccc(S(=O)(=O)Nc2ccon2)cn1 [Example 5-2, 6-(carbamoyl(2,4′-dichloro-3′-fluoro-5-methoxy-4-biphenylyl)amino)-N-3-isoxazolyl-3-pyridinesulfonamide] | 0.01 µM
COc1cc(-c2cc(Cl)cc(C#N)c2)c(Cl)cc1N(C(N)=O)c1ccc(S(=O)(=O)Nc2ccon2)cn1 [Example 5-3, 6-(carbamoyl(2,3′-dichloro-5′-cyano-5-methoxy-4-biphenylyl)amino)-N-3-isoxazolyl-3-pyridinesulfonamide] | 0.031 µM
COc1cc(-c2cc(OC)c(N(C(N)=O)c3ccc(S(=O)(=O)Nc4ccon4)cn3)cc2Cl)cc(C(F)(F)F)c1 [Example 5-4, 6-(carbamoyl(2-chloro-3′,5-dimethoxy-5′-(trifluoromethyl)-4-biphenylyl)amino)-N-3-isoxazolyl-3-pyridinesulfonamide] | 0.007 µM
COc1cc(-c2cccc(OCC(F)(F)F)c2)c(Cl)cc1N(C(N)=O)c1ccc(S(=O)(=O)Nc2ccon2)cn1 [Example 5-5, 6-(carbamoyl(2-chloro-5-methoxy-3′-(2,2,2-trifluoroethoxy)-4-biphenylyl)amino)-N-3-isoxazolyl-3-pyridinesulfonamide] | 0.016 µM
COC(=O)N(c1ccc(S(=O)(=O)Nc2ccon2)cn1)c1cc(Cl)c(-c2cccc(C(F)(F)F)c2)cc1OC [Example 6, Methyl (2-chloro-5-methoxy-3′-(trifluoromethyl)-[1,1′-biphenyl]-4-yl)(5-(N-(isoxazol-3-yl)sulfamoyl)pyridine-2-yl)carbamate] | 0.167 µM
CNC(=O)N(c1ccc(S(=O)(=O)Nc2ccon2)cn1)c1cc(Cl)c(C#CC2CCCC2)cc1OC [Example 7, 6-((5-chloro-4-(cyclopentylethynyl)-2-methoxyphenyl)(methylcarbamoyl)amino)-N-3-isoxazolyl-3-pyridinesulfonamide] | 0.068 µM
CNC(=O)N(c1ccc(S(=O)(=O)Nc2ccon2)cn1)c1cc(F)c(CCC(F)(F)F)cc1OC [Example 8, 6-((5-fluoro-2-methoxy-4-(3,3,3-trifluoropropyl)phenyl)(methylcarbamoyl)amino)-N-3-isoxazolyl-3-pyridinesulfonamide] | 0.849 µM
CNC(=O)N(c1ccc(S(=O)(=O)Nc2ccon2)cc1)c1ccc(-c2ccc(Cl)c(C)c2)cc1OC [Example 9, 4-(1-(4′-chloro-3-methoxy-3′-methyl-[1,1′-biphenyl]-4-yl)-3methylureido)-N-(isoxazol-3-yl)benzenesulfonamide] | 0.4 µM
CNC(=O)N(c1ccc(S(=O)(=O)Nc2ccon2)cc1)c1cc(F)c(-c2ccc(F)c(OC(F)(F)F)c2)cc1OC [Example 10, 4-(1-(2,4′-difluoro-5-methoxy-3′-(trifluoromethoxy)-[1,1′-biphenyl]-4-yl)-3-methylureido)-N-(isoxazol-3-yl)benzenesulfonamide] | 0.21 µM
